Tests used:
Caco-2 cell layers = assay: Transport study across Caco-2 cell layers; settings: Caco-2 model; PFAS mixture 1 µM each; not detected in the basolateral compartment
Procedure: (§1) Human colorectal adenocarcinoma cells (Caco-2, HTB-37) were obtained from American Type Culture Collection (ATCC, Manassas, VA). Cells were cultured in a humidified incubator (37°C, 5% CO2) in Dulbecco’s modified Eagle’s medium (DMEM) supplemented with 10% heat-inactivated fetal bovine serum (Gibco, Thermo Fisher Scientific, Waltham, MA), 1% non-essential amino acids (Gibco) and 1% penicillin/streptomycin (Sigma). For experiments, Caco-2 cells below passage number 50 were used within 10 passages. They were harvested at 80% confluence using Trypsin/EDTA (0.25%/0.05%; PAN Biotech, Aidenbach, Germany) and seeded at a density of 4 × 10^5 cells/cm^2 into inserts with a polycarbonate membrane (0.4 µm pore, Corning, New York, NY). After 21 days of differentiation (using 500 µl cell culture medium in the apical and 1500 µl in the basolateral compartment), monolayer integrity was determined by measuring transepithelial electrical resistance (TEER) with a Millicell ERS Volt-Ohm meter (Millipore, Bedford, MA).
(§2) Transport studies were performed in Caco-2 cells, hiPSC-derived IECs and EpiIntestinal microtissues. To that end, Caco-2 cell layers were differentiated for 21 days and hiPSCs were differentiated into IEC layers for 26 days, as described above. EpiIntestinal microtissues were subjected to transport studies 1 day after arrival. […] For all models, PFAS transport was assessed in apical to basolateral, and basolateral to apical direction using HBSS containing a mixture of PFASs containing 1 µM of each PFAS. See Supplementary Data for a detailed description of the method used for the transport studies of the model compounds and PFASs.
(§3) Prior to exposure to the transport study compounds, the cells were washed with transport medium (HBSS; Sigma). […] 100 µL aliquots were collected from the basolateral compartment and replaced with the same volume HBSS at settled time points (0, 15, 30 and 60 min). For basolateral to apical transport in the EpiIntestinal microtissues, 0.2 mL HBSS was added to the apical compartment and 0.5 mL HBSS containing a mixture of PFASs containing 1 µM of each PFAS, was added to the basolateral compartment. 100 µL aliquots were collected from the apical compartment and replaced with the same volume of HBSS at settled time points (0, 15, 30 and 60 min). For apical to basolateral transport across the Caco-2 cell layers and hiPSC-derived IEC layers, 1.2 mL HBSS was added to the basolateral compartment and 0.4 mL HBSS containing either model compounds (10 µM) or a mixture of PFASs containing 1 µM of each PFAS, was added to the apical compartment. 100 µL aliquots were collected from the basolateral compartment and replaced with the same volume of HBSS at settled time points (0, 7.5, 15, 30 and 60 min for the model compounds with both models and the PFASs with the hiPSC-derived IEC layers and 0, 15, 30 and 60 min for PFASs with the Caco-2 cell layers). For basolateral to apical transport, 0.4 mL HBSS was added to the apical compartment and 1.2 mL HBSS containing 10 µM of the model compounds or a mixture of PFASs containing 1 µM of each PFAS, was added to the basolateral compartment. 100 µL aliquots were collected from the apical compartment and replaced with the same volume of HBSS at settled time points (0, 7.5, 15, 30 and 60 min for the model compounds with both models and the PFASs with the hiPSC-derived IEC layers and 0, 15, 30 and 60 min for PFASs with the Caco-2 cell layers). After 60 minutes, all liquid was collected from the apical and basolateral compartment and the cells were lysed in 200 µL RIPA buffer (Thermo Fisher Scientific), and chemicals were quantified in the different compartments (apical, basolateral and cells) in order to calculate the mass balance.
(§4) The apparent permeability coefficient (Papp, cm/s) was calculated using the following equation: […]

[1] = Transport study across Caco-2 cell layers; settings: human, Caco-2
Procedure: as §1, §2, §3, §4

[2] = Transport study across EpiIntestinal microtissues; settings: human
Procedure: The human EpiIntestinal small intestinal microtissues, consisting of epithelial cells and an underlying lamina propria containing intestinal fibroblasts, were obtained from MatTek Life Sciences (Ashland, USA). Cell culture inserts (8.8 mm ID) were placed in 12-well plates and cells were maintained in 100 µl maintenance medium (MatTek Life Sciences) in the apical compartment and 5 ml maintenance medium in the basolateral compartment upon arrival. The transport studies were performed 1 day after arrival.
as §2, §3, §4
where A is the surface area (cm^2), dQ is the amount of the compound transported (nmol) over the respective time interval dt (s) and C0 is the initial concentration in the donor compartment (µM).

[3] = Transport study across hiPSC-derived IEC layers; settings: human
Procedure: For differentiation into IECs, definitive endoderm cells were subsequently differentiated into intestinal stem cells by changing medium into DMEM/F12 containing 2% fetal bovine serum, 1% GlutaMAX (Gibco) and 250 ng/ml FGF2 (R&D Systems). After 4 days, cells were dissociated using Accutase and seeded onto polyester Transwell inserts (0.4 µm, Corning) coated with Growth Factor Reduced Matrigel #356231. Cells were cultured for 7 days in intestinal differentiation medium (DMEM/F-12 containing 2% fetal bovine serum, 1% non-essential amino acids (Gibco), 1 × B27 (Gibco), 1 × N2 (Gibco), 1% penicillin/streptomycin (Gibco) and 2 mM L-glutamine (Gibco)) supplemented with 20 ng/ml EGF (R&D Systems) and 30 µM Forskolin (Sigma). ROCK inhibitor, y-27632 (final concentration 10 µM; Stem Cell Technologies), was added during the initial 24 h after seeding to reduce cell death. The cells were subsequently cultured for 12 days in intestinal differentiation medium supplemented with 20 ng/ml EGF, 30 µM Forskolin, 5 µM 5-aza-2′-deoxycytidine (Sigma), 20 µM PD98059 (Stem Cell Technologies) and 0.5 µM A-83–01 (Sigma). The medium was refreshed every 2–3 days. Barrier integrity was determined by measuring apical to basolateral translocation of Lucifer yellow (see Supplementary Data for a detailed description).
as §2
as §3, with “layers).” for “layers). After 60 minutes, all liquid was collected from the apical and basolateral compartment and the cells were lysed in 200 µL RIPA buffer (Thermo Fisher Scientific), and chemicals were quantified in the different compartments (apical, basolateral and cells) in order to calculate the mass balance.”

hiPSC-derived IEC layers = assay: Barrier integrity: apical to basolateral translocation of lucifer yellow; assay type: in vitro ADME, human; settings: terminally differentiated IECs; 500 µg/ml apical, 3 hours; data not shown
Procedure: The medium was refreshed every 2–3 days.
To determine barrier integrity of the hiPSC-derived IEC layers, apical to basolateral translocation of lucifer yellow was measured. 500 µg/ml Lucifer yellow, in differentiation medium, containing EGF, Forskolin, 5-aza-2′-deoxycytidine, PD98059, A-83-01, was added to the apical compartment (400 µl/insert) and incubated at 37 °C for 3 hours. 50 µl medium was collected from the basolateral compartment at 30 min intervals. The fluorescence intensity was measured at 485 nm excitation and 530 nm emission wavelength using a microplate reader (Synergy HT, BioTek, Winooski, VT).

O=C(O)C(F)(OC(F)(F)C(F)(F)C(F)(F)F)C(F)(F)F (stereo not drawn) [HFPO-DA, hexafluoropropylene oxide dimer acid]
Transport (in words) (Caco-2 cell layers): no transport | Papp B→A at 60 min, 1 µM [1]: 1.23 ± 0.25 ×10⁻⁶ cm/s | Papp A→B at 60 min, 1 µM [2]: 1.16 ± 0.19 ×10⁻⁶ cm/s | Papp B→A at 60 min, 1 µM [2]: 1.04 ± 0.09 ×10⁻⁶ cm/s | efflux ratio at 60 min, 1 µM [2]: 0.9 | Papp A→B at 60 min, 1 µM [3]: 3.09 ± 0.09 ×10⁻⁶ cm/s | Papp B→A at 60 min, 1 µM [3]: 4.49 ± 0.27 ×10⁻⁶ cm/s | efflux ratio at 60 min, 1 µM [3]: 1.45

lucifer yellow
Apical to basolateral transport of lucifer yellow (hiPSC-derived IEC layers): no quantifiable
